Data set [1] deals with Pseudomonas aeruginosa. Kind of data set: Antibacterial activity against Pseudomonas aeruginosa 1042-06 by broth microdilution method. Type of data set: functional. For orientation: In broth dilution the organism is exposed to a series of concentrations in liquid medium.
Another data set concerns Rattus norvegicus. Kind of data set: Intrinsic clearance in Wistar Han rat at 1 mg/kg, iv by LC/MS/MS analysis. Type of data set: ADME, organism-based. The arrangement: dose 1 mg/kg, route intravenous. To be noted: in vivo.
Data set [2] can be described thus: Fraction unbound in rat plasma. It counts as ADME, cell-free.
A short description of data set [3]: Fraction unbound in mouse plasma. Type of data set: ADME, cell-free.
Another data set relates to Acinetobacter baumannii. Kind of data set: Antibacterial activity against Acinetobacter baumannii AB-3167 by broth microdilution method. It counts as functional.
The nature of data set [4]: Plasma clearance in Wistar Han rat at 1 mg/kg, iv by LC/MS/MS analysis. It counts as ADME, organism-based. The arrangement: dose 1 mg/kg, route intravenous.
Data set [5] concerns Pseudomonas aeruginosa. Kind of data set: microbe, parasite or virus in culture. To be noted: 1091-05.
Description: Antibacterial activity against Pseudomonas aeruginosa 1091-05 by broth microdilution method
The nature of data set [6]: Fraction unbound in human plasma. It counts as ADME, cell-free.
In data set [7] the test system is Klebsiella pneumoniae. Kind of data set: Antibacterial activity against Klebsiella pneumoniae 1487-07 by broth microdilution method. It counts as functional.
Data set [8] in a line: Inhibition of PBP1a in Pseudomonas aeruginosa ATCC 27853 after 20 mins by fluorescence assay.
A short description of data set [9]: Inhibition of PBP3 in Pseudomonas aeruginosa ATCC 27853 after 20 mins by fluorescence assay.
Data set [10] concerns Klebsiella pneumoniae. Kind of data set: Antibacterial activity against Klebsiella pneumoniae 1000-02 by broth microdilution method. It counts as functional.
Data set [11] in a line: Inhibition of PBP2 in Pseudomonas aeruginosa ATCC 27853 after 20 mins by fluorescence assay.
Data set [12] can be described thus: Inhibition of PBP1b in Pseudomonas aeruginosa ATCC 27853 after 20 mins by fluorescence assay.
The subject of data set [13] is Klebsiella pneumoniae. Kind of data set: Antibacterial activity against Klebsiella pneumoniae expressing ESBL by broth microdilution method. It counts as functional.
The next data set deals with Acinetobacter sp. Kind of data set: Antibacterial activity against Acinetobacter spp. by broth microdilution method. Type of data set: functional.
In data set [14] the test system is Pseudomonas aeruginosa. Kind of data set: Antibacterial activity against Pseudomonas aeruginosa expressing metallo-beta-lactamase by broth microdilution method. It counts as functional.
Data set [15] concerns Pseudomonas aeruginosa. Kind of data set: Antibacterial activity against Pseudomonas aeruginosa from cystic fibrosis patients by broth microdilution method. Type of data set: functional.
Data set [16] relates to Escherichia coli. Kind of data set: Antibacterial activity against Escherichia coli expressing defined beta-lactamase by broth microdilution method. Type of data set: functional.
The subject of data set [17] is Escherichia coli. Kind of data set: Antibacterial activity against Escherichia coli expressing CTX-M by broth microdilution method. It counts as functional.
Data set [18] deals with Klebsiella pneumoniae. Kind of data set: Antibacterial activity against Klebsiella pneumoniae expressing KPC by broth microdilution method. It counts as functional.
The subject of data set [19] is Klebsiella pneumoniae. Kind of data set: Antibacterial activity against Klebsiella pneumoniae expressing defined beta-lactamase by broth microdilution method. Type of data set: functional.
In data set [20] the test system is Escherichia coli. Kind of data set: Antibacterial activity against Escherichia coli expressing ESBL by broth microdilution method. It counts as functional.

Values after ≈ are worked out from the molar mass of the structure shown.

`CC(C)(O/N=C(\C(=O)N[C@@H]1C(=O)N(S(=O)(=O)O)[C@@H]1Cn1cc(COCc2cc(=O)c(O)cn2O)nn1)c1csc(N)n1)C(=O)O`: the figures for the MIC in the data set with Pseudomonas aeruginosa [1], in the data set on Acinetobacter baumannii and in the data set on Pseudomonas aeruginosa [5] were 1 µg/mL (≈ 1.49 µM), 0.25 µg/mL (≈ 0.372 µM) and 0.25 µg/mL (≈ 0.372 µM), respectively. This compound showed a CL in the data set with Rattus norvegicus of 94 mL/min/kg. For the same compound, the fraction unbound was 0.6 in data set [2], 0.8 in data set [3] and 0.5 in data set [6]. In [4], this compound registered a clearance of 31.3 mL/min/kg.

For the compound `CC(C)(O/N=C(\C(=O)N[C@@H]1C(=O)N(S(=O)(=O)O)[C@@H]1CNC(=O)c1cc(=O)c(O)cn1-c1ccccc1)c1csc(N)n1)C(=O)O`, the MIC with Pseudomonas aeruginosa [1] was determined as 32 µg/mL (≈ 48.2 µM); against Klebsiella pneumoniae [7], 16 µg/mL (≈ 24.1 µM); against Acinetobacter baumannii it was 32 µg/mL (≈ 48.2 µM); against Klebsiella pneumoniae [10], 1 µg/mL (≈ 1.51 µM); in the data set with Pseudomonas aeruginosa [5], 32 µg/mL (≈ 48.2 µM). The IC50 in [8] is 580 nM; in [9] it was 140 nM; in data set [11], above 300000 nM; in [12] it was 7400 nM.

As for `Nc1nc(/C(=N/OC2(C(=O)O)CCC2)C(=O)N[C@@H]2C(=O)N(S(=O)(=O)O)[C@@H]2CNC(=O)NCc2cc(=O)c(O)cn2O)cs1`, the MIC with Pseudomonas aeruginosa [1] came to 1 µg/mL (≈ 1.55 µM); in the data set with Klebsiella pneumoniae [7], 0.5 µg/mL (≈ 0.776 µM); against Acinetobacter baumannii, 0.125 µg/mL (≈ 0.194 µM). The IC50 in data set [8] is 340 nM; in data set [9], 66 nM; in [11] it was above 300000 nM; in data set [12], 2460 nM.

With `C[C@H]1[C@H](NC(=O)/C(=N\OC(C)(C)C(=O)O)c2csc(N)n2)C(=O)N1S(=O)(=O)O` [AZTREONAM], the MIC in the data set on Pseudomonas aeruginosa [1] was 64 µg/mL (≈ 147 µM); with Klebsiella pneumoniae [7], above 64 µg/mL; with Acinetobacter baumannii, 4 µg/mL (≈ 9.19 µM); in the data set on Klebsiella pneumoniae [10], above 64 µg/mL; with Pseudomonas aeruginosa [5], 4 µg/mL (≈ 9.19 µM). For the same compound, the MIC50 stood at 32 µg/mL (≈ 73.5 µM) against Klebsiella pneumoniae [13]; 32 µg/mL (≈ 73.5 µM) against Acinetobacter sp.; 8 µg/mL (≈ 18.4 µM) against Pseudomonas aeruginosa [14]; 8 µg/mL (≈ 18.4 µM) with Pseudomonas aeruginosa [15]; 4 µg/mL (≈ 9.19 µM) in the data set on Escherichia coli [16]; 64 µg/mL (≈ 147 µM) in the data set on Escherichia coli [17]. The figures for the MIC50 against Klebsiella pneumoniae [18], in the data set with Klebsiella pneumoniae [19] and in the data set on Escherichia coli [20] were above 64 µg/mL, 64 µg/mL (≈ 147 µM) and 64 µg/mL (≈ 147 µM), respectively. For the same compound, the MIC90 was above 64 µg/mL against Klebsiella pneumoniae [13]; above 64 µg/mL with Acinetobacter sp.; 16 µg/mL (≈ 36.7 µM) against Pseudomonas aeruginosa [14]; 64 µg/mL (≈ 147 µM) in the data set on Pseudomonas aeruginosa [15]; above 64 µg/mL against Escherichia coli [16]; above 64 µg/mL against Escherichia coli [17]. Further, the MIC90 against Klebsiella pneumoniae [18], in the data set with Klebsiella pneumoniae [19] and in the data set on Escherichia coli [20] was above 64 µg/mL throughout. The IC50 in data set [8] was 3340 nM; in data set [9], 8 nM; in data set [11], above 300000 nM; in data set [12] it was 2870 nM.

One may read the fraction unbound as free concentration divided by total concentration. Read a high fraction unbound as much free substance. The clearance is a measure of how efficiently the substance is removed, as volume per time. Low readings indicate a low capacity for elimination, high ones a high capacity for elimination. Usually IC50 stands for the point on the concentration scale where inhibition reaches its midpoint. A low value points to greater potency. What is called MIC50 is the lowest concentration that inhibits either 50% of growth or 50% of the strains tested, depending on the study. The low end stands for greater potency, the high end for weaker potency. As a reminder, the MIC90 is the lowest concentration that inhibits either 90% of growth or 90% of the strains tested, depending on the study.

These data come from ChEMBL document CHEMBL2407067, “Pyridone-conjugated monobactam antibiotics with gram-negative activity” (J Med Chem, 2013).
